Data published in PubChem BioAssay AID651975 (The Scripps Research Institute Molecular Screening Center, 2013).
Calls of active or inactive are those of the source. The rule behind the calls is not given here.

Test system: StAR promoter luciferase reporter cells, luminescence inhibition
Assay: StAR promoter reporter inhibition counter-screen, late-stage follow-up, counter-screen for LRH-1 inverse agonist project, cell-based, luminescence, dose response (AID 651975)

With `Cc1ccc(-c2csc(NC(=O)c3ccc([N+](=O)[O-])o3)n2)cc1` the IC50 was > 35.9 µM (inactive).
With `CCOc1ccc(NC(=O)CSc2nc3[nH]ncc3c(=O)[nH]2)cc1` the IC50 was > 35.9 µM (inactive).
With `O=c1[nH]c(Nc2ccc3c(c2)OCCO3)nnc1Cc1ccccc1` the IC50 was > 35.9 µM (inactive).
With `COc1ccc(CCNC(=O)COC(=O)c2cc(Cl)nc(Cl)c2)cc1` the IC50 was > 35.9 µM (inactive).
For `CCOc1ccc(NC(=O)CSc2nccn(-c3ccc4c(c3)OCCO4)c2=O)cc1`, the IC50 was > 35.9 µM (inactive).
`Cc1cc(Br)ccc1NC(=O)CN1C(=O)C2CC=CCC2C1=O` (stereo not given) was tested, and the IC50 was 27.8 µM (inactive).
`CCCc1cc(=O)oc2cc(OCC(=O)NCc3ccccn3)ccc12` was tested, and the IC50 was > 35.9 µM (inactive).
For `Cc1cc(OCC(=O)Nc2nccs2)c2c(C)cc(=O)oc2c1`, the IC50 was > 35.9 µM (inactive).
For `O=C(NCC1CCCO1)c1ccc(NC(=O)c2cccc([N+](=O)[O-])c2)cc1` (stereo not given), the IC50 was > 35.9 µM (inactive).
For `O=C(CSc1nnc(CNC(=O)c2ccccc2F)o1)Nc1ccc2c(c1)OCCO2`, the IC50 was > 35.9 µM (inactive).
For `N#CCSc1ccccc1NC(=O)CN1C(=O)C2CC=CCC2C1=O` (stereo not given), the IC50 was > 35.9 µM (inactive).
In the case of `Cc1cc(Br)ccc1NC(=O)CSc1nnc(CN2CCOCC2)n1C`, the IC50 is reported as > 35.9 µM (inactive).
`COc1ccc(NC(=O)CS(=O)(=O)c2ccc(C)cc2)c(OC)c1` was tested, and the IC50 was > 35.9 µM (inactive).
In the case of `CCc1cc(=O)oc2c(C)c(OCC(=O)NCCN3CCOCC3)ccc12`, the IC50 is reported as > 35.9 µM (inactive).
`COc1ccc(NC(=O)CSc2nnc3ccc(-c4cccnc4)nn23)cc1OC` was tested, and the IC50 was > 35.9 µM (inactive).
For `CC(=O)Nc1ncc(Cc2cc(Cl)ccc2Cl)s1`, the IC50 was > 35.9 µM (inactive).
For `O=C(CN1C(=O)CCC1=O)Nc1ccc(Br)cc1`, the IC50 was > 35.9 µM (inactive).
With `O=C(COC(=O)c1ccc[n+]([O-])c1)Nc1ccc([N+](=O)[O-])cc1Cl` the IC50 was > 35.9 µM (inactive).
In the case of `Cc1cccc(NC(=O)COC(=O)CN2C(=O)c3ccccc3C2=O)c1C`, the IC50 is reported as > 35.9 µM (inactive).
In the case of `Cc1cccc(NC(=O)COC(=O)Cc2cccs2)c1C`, the IC50 is reported as > 35.9 µM (inactive).
In the case of `Cc1sc(NC(=O)C(C)C)c(C(=O)Nc2ccccc2)c1C`, the IC50 is reported as > 35.9 µM (inactive).
With `O=C(COC(=O)CCN1C(=O)C2CC=CCC2C1=O)NCCc1ccc(F)cc1` (stereo not given) the IC50 was > 35.9 µM (inactive).
`CCOc1ccc(NC(=O)CSc2nnc(C(C)C)n2CC)cc1` was tested, and the IC50 was > 35.9 µM (inactive).
For `COc1ccc(NC(=O)CSc2nc(N)c(-c3ccccc3)c(=O)[nH]2)cc1`, the IC50 was > 35.9 µM (inactive).
With `NC(=O)C1CCN(C(=O)COc2ccc3c4c(c(=O)oc3c2)CCCC4)CC1` the IC50 was > 35.9 µM (inactive).
With `O=C(COC(=O)c1ccc(=O)n(Cc2ccccc2)n1)Nc1ccc2c(c1)OCCO2` the IC50 was > 35.9 µM (inactive).
With `O=C(Nc1ccc(S(=O)(=O)N2CCOCC2)cc1)c1cccc([N+](=O)[O-])c1` the IC50 was > 35.9 µM (inactive).
For `Cc1cc(Br)ccc1NC(=O)CN1C(=O)CCC1=O`, the IC50 was > 35.9 µM (inactive).
`COC(=O)c1ccc(NC(=O)CSc2ccc(-c3ccccn3)nn2)cc1` was tested, and the IC50 was > 35.9 µM (inactive).
For `CCCN(CC(=O)Nc1ccc(C(C)=O)cc1)CC(=O)Nc1ccccc1C`, the IC50 was > 35.9 µM (inactive).
With `COc1ccc(CC(NC(C)=O)C(=O)NC2CCN(c3nnnn3-c3ccccc3)CC2)cc1` (stereo not given) the IC50 was > 35.9 µM (inactive).
In the case of `O=C(COC(=O)c1ccc(Br)cc1)Nc1ccccc1Br`, the IC50 is reported as > 35.9 µM (inactive).
`COc1ccccc1Oc1nnnn1-c1ccc(C(N)=O)cc1` was tested, and the IC50 was > 35.9 µM (inactive).
`Cc1cc(=O)oc2c(C)c(OCC(=O)NC3CC(C)(C)NC(C)(C)C3)ccc12` was tested, and the IC50 was > 35.9 µM (inactive).
`O=C(Nc1nc2c(Cl)cccc2s1)c1ccc([N+](=O)[O-])o1` was tested, and the IC50 was > 35.9 µM (inactive).
`Cc1ccc(NC(=O)CSc2nc3[nH]c(=O)cc(O)c3s2)c(Br)c1` was tested, and the IC50 was > 35.9 µM (inactive).
For `COc1ccc(CCNC(=O)COC(=O)Cc2ccccc2[N+](=O)[O-])cc1`, the IC50 was > 35.9 µM (inactive).
`CN1CCN(c2ccc(S(=O)(=O)N3CCCCC3)cc2NC(=O)COc2ccc([N+](=O)[O-])cc2)CC1` was tested, and the IC50 was > 35.9 µM (inactive).
With `COc1ccc(CCNC(=O)COC(=O)c2cccn2C)cc1` the IC50 was > 35.9 µM (inactive).
With `O=C(Nc1ccc(Br)cn1)c1ccc([N+](=O)[O-])o1` the IC50 was > 35.9 µM (inactive).
For `Cc1ccc(NC(=O)COC(=O)C(NS(=O)(=O)c2ccc(Cl)cc2)C(C)O)cc1C` (stereo not given), the IC50 was > 35.9 µM (inactive).
For `COC(=O)c1ccc(NC(=O)CN2CCN(c3ccc(Cl)cc3)CC2)cc1`, the IC50 was > 35.9 µM (inactive).
In the case of `COc1ccc(CCNC(=O)CSc2nn3c(=O)c(C)nnc3s2)cc1OC`, the IC50 is reported as > 35.9 µM (inactive).
With `CCOc1ccc(OCCC(=O)OCC(=O)Nc2ccc3c(c2)OCCO3)cc1` the IC50 was > 35.9 µM (inactive).
In the case of `CCCc1cc(=O)oc2cc(OCC(=O)NCCc3ccc(S(N)(=O)=O)cc3)ccc12`, the IC50 is reported as > 35.9 µM (inactive).
`COCC(=O)NC1CCN(CC(=O)Nc2ccc(OC)cc2[N+](=O)[O-])CC1` was tested, and the IC50 was > 35.9 µM (inactive).
`CCOc1ccc(NC(=O)CN2CCN(CC(=O)Nc3ccc(OC)cc3)CC2)cc1` was tested, and the IC50 was > 35.9 µM (inactive).
In the case of `Cc1ccc(NC(=O)COC(=O)c2cc(=O)c3ccccc3o2)c(Br)c1`, the IC50 is reported as > 35.9 µM (inactive).
With `CCOc1ccc(NC(=O)COC(=O)CC2CCCCC2)cc1` the IC50 was > 35.9 µM (inactive).
In the case of `CCOc1ccc(NC(=O)CSc2nncc(=O)n2N)cc1`, the IC50 is reported as > 35.9 µM (inactive).
With `CC(C)CC1(C)NC(=O)N(CC(=O)Nc2ccc3c(c2)OCCO3)C1=O` (stereo not given) the IC50 was > 35.9 µM (inactive).
`COc1ccc(NC(=O)CN2C(=O)NC3(CCCC3)C2=O)cc1` was tested, and the IC50 was > 35.9 µM (inactive).
`CCc1c(C)nc(SCC(=O)Nc2ccc3c(c2)OCCO3)[nH]c1=O` was tested, and the IC50 was > 35.9 µM (inactive).
In the case of `COc1ccc(CCNC(=O)COC(=O)C23CC4CC(CC(C4)C2)C3)cc1`, the IC50 is reported as > 35.9 µM (inactive).
`COc1ccc(C2(C)NC(=O)N(CC(=O)NCCC3=CCCCC3)C2=O)cc1OC` (stereo not given) was tested, and the IC50 was > 35.9 µM (inactive).
With `COC(=O)c1ccc(NC(=O)CSc2nn3c(=O)c(C)nnc3s2)cc1` the IC50 was > 35.9 µM (inactive).
In the case of `COc1ccc(NC(=O)COC(=O)c2cc(S(=O)(=O)N3CCCC3)ccc2O)cc1`, the IC50 is reported as > 35.9 µM (inactive).
`CCOc1ccc(NC(=O)COC(=O)COc2cccc3c2OC(C)(C)C3)cc1` was tested, and the IC50 was > 35.9 µM (inactive).
For `CC(=O)c1ccc(NC(=O)C(C)O/N=C(\N)c2ccccc2)cc1` (stereo not given), the IC50 was > 35.9 µM (inactive).
For `CC(=O)Nc1ccc(NC(=O)CSc2ccc(-c3ccco3)nn2)cc1`, the IC50 was > 35.9 µM (inactive).
With `COc1ccc(-n2c(N)c(C(=O)NCc3cccnc3)sc2=S)cc1` the IC50 was > 35.9 µM (inactive).
`COc1ccc(NC(=O)CSc2sc3c(O)cc(=O)[nH]c3c2C#N)c(OC)c1` was tested, and the IC50 was > 35.9 µM (inactive).
`O=C(COc1ccc2c3c(c(=O)oc2c1)CCC3)NCc1ccncc1` was tested, and the IC50 was > 35.9 µM (inactive).
For `COc1ccc(NC(=O)COC(=O)c2c(-c3ccccc3)noc2C)cc1`, the IC50 was 33.9 µM (inactive).
With `CCCc1cc(=O)oc2c(C)c(OCC(=O)NCCN3CCOCC3)ccc12` the IC50 was > 35.9 µM (inactive).
For `CCCc1cc(=O)oc2cc(C)cc(OCC(=O)NC3CC3)c12`, the IC50 was > 35.9 µM (inactive).
In the case of `CCn1c(SCC(=O)Nc2ccc(Cl)cc2)nnc1C1CC1`, the IC50 is reported as > 35.9 µM (inactive).
With `O=C(CSc1nc(=O)n2cc(Cl)ccc2n1)Nc1ccc2c(c1)OCCO2` the IC50 was > 35.9 µM (inactive).
For `O=C1CCCN2N=C(SCC(=O)Nc3ccc(Br)cc3)SC2=N1`, the IC50 was > 35.9 µM (inactive).
With `Cc1ccc2cccc(OCC(=O)NCCC3=CCCCC3)c2n1` the IC50 was > 35.9 µM (inactive).
For `COC(=O)c1ccc(NC(=O)CSc2nc3ncccc3[nH]2)cc1`, the IC50 was > 35.9 µM (inactive).
For `COc1ccc(NC(=O)CSc2ccc3c(c2)OCCO3)cc1`, the IC50 was > 35.9 µM (inactive).
`CCOc1ccc(NC(=O)COC(=O)c2ccc3c(c2)OCCO3)cc1` was tested, and the IC50 was > 35.9 µM (inactive).
In the case of `CCCc1cc(=O)oc2c(C)c(OCC(=O)NC3CC(C)(C)NC(C)(C)C3)ccc12`, the IC50 is reported as > 35.9 µM (inactive).
With `O=C(Nc1ccccc1)c1oc2ccccc2c1NC(=O)C1CC1` the IC50 was > 35.9 µM (inactive).
`O=C(COc1ccc2c3c(c(=O)oc2c1)CCCC3)NCc1ccccn1` was tested, and the IC50 was > 35.9 µM (inactive).
With `O=C(CSc1nnc(CNC(=O)c2c(F)cccc2F)o1)Nc1ccc2c(c1)OCCO2` the IC50 was > 35.9 µM (inactive).
In the case of `COc1ccc(CCNC(=O)CSc2ccc(NC(C)=O)cc2)cc1OC`, the IC50 is reported as > 35.9 µM (inactive).
In the case of `Cc1nn(CC(=O)Nc2ccc3c(c2)OCCO3)c(C)c1[N+](=O)[O-]`, the IC50 is reported as > 35.9 µM (inactive).
With `Cc1ccn2c(=O)nc(SCC(=O)Nc3ccc4c(c3)OCCO4)nc2c1` the IC50 was > 35.9 µM (inactive).
For `Cc1ccc(NC(=O)CSc2sc3c(O)cc(=O)[nH]c3c2C#N)c(F)c1`, the IC50 was > 35.9 µM (inactive).
For `CCCc1nnc(SCC(=O)Nc2ccc(C(=O)OCC)cc2)o1`, the IC50 was > 35.9 µM (inactive).
`CC1SC(C)C(=O)N(CC(=O)Nc2ccc3c(c2)OCO3)C1=O` (stereo not given) was tested, and the IC50 was > 35.9 µM (inactive).
For `O=C(OCC(=O)N1CCN(C(=O)COC(=O)c2ccc(O)cc2O)CC1)c1ccc(O)cc1O`, the IC50 was > 35.9 µM (inactive).
`COCCn1c(C)cc(/C=C(\C#N)C(=O)OCC(=O)Nc2ccc(S(N)(=O)=O)cc2)c1C` was tested, and the IC50 was > 35.9 µM (inactive).
`O=C(NCc1ccco1)c1nn(-c2ccccc2)c(=O)c2ccccc12` was tested, and the IC50 was > 35.9 µM (inactive).
With `CCOc1ccc(OCCN2C(=O)NC(Cc3c[nH]c4ccccc34)C2=O)cc1` (stereo not given) the IC50 was > 35.9 µM (inactive).
With `Cc1ccc(NC(=O)COC(=O)C(NS(=O)(=O)c2ccc(Cl)cc2)C(C)O)c(Br)c1` (stereo not given) the IC50 was > 35.9 µM (inactive).
`COC(=O)c1ccc(NC(=O)COc2cccc(-n3cnnn3)c2)cc1` was tested, and the IC50 was > 35.9 µM (inactive).
In the case of `Cc1cc(C)c2sc(NC(=O)c3ccc([N+](=O)[O-])o3)nc2c1`, the IC50 is reported as > 35.9 µM (inactive).
`CC(=O)Nc1ccc(N=c2cc([N+](=O)[O-])cc(Cl)n2O)cc1` was tested, and the IC50 was > 35.9 µM (inactive).
`Cc1cc(C)c2nc(NC(=O)c3ccc([N+](=O)[O-])o3)sc2c1` was tested, and the IC50 was > 35.9 µM (inactive).
For `CCCc1cc(=O)oc2c(C)c(OCC(=O)NCCCn3ccnc3)ccc12`, the IC50 was > 35.9 µM (inactive).
In the case of `COc1ccc(CCNC(=O)CSc2nc3[nH]c(=O)cc(O)c3s2)cc1`, the IC50 is reported as > 35.9 µM (inactive).
In the case of `CCc1cc(=O)[nH]c(SCC(=O)Nc2ccc3c(c2)OCCO3)n1`, the IC50 is reported as > 35.9 µM (inactive).
